Source: ChEMBL document CHEMBL5608189, “Design and synthesis of unique indole-benzosulfonamide oleanolic acid derivatives as potent antibacterial agents against MRSA” (Eur J Med Chem, 2024)
Calls of active or inactive are those of the source. The calls are words filed in the database; no cut-off is given here.

Assays:
[1] = tested on: Staphylococcus aureus; experiment: Induction of morphological changes in methicillin-resistant Staphylococcus aureus assessed as disruption of cellular structure at 8 times MIC incubated for 8 hrs by SEM analysis; format: functional, organism-based
[2] = tested on: Cell membrane; experiment: Disruption of cell membrane integrity in methicillin-resistant Staphylococcus aureus assessed as leakage of cellular content at 8 times MIC incubated for 8 hrs by TEM analysis; format: cell membranes
[3] = tested on: Cell membrane; experiment: Induction of cell membrane in methicillin-resistant Staphylococcus aureus assessed as increase in fluorescence intensity at 1 to 8 times MIC measured after 30 mins by SYTOX green dye based spectrofluorometer; format: cell membranes
[4] = tested on: Staphylococcus epidermidis; experiment: Antibacterial activity against Staphylococcus epidermidis ATCC 12228 assessed as inhibition of bacterial growth at 1 times MIC measured every 2 hrs for 24 hrs by time kill assay; format: functional, organism-based
[5] = tested on: Staphylococcus aureus; experiment: Antibacterial activity against methicillin-resistant Staphylococcus aureus infected in female C57BL/6 mouse wound model assessed as reduction in wound area at 30 mg/kg administered twice on wounds with 6 hrs interval and measured for 7 days; format: functional, organism-based; details: time 7.0 day
[6] = Toxicity in female C57BL/6 mouse assessed as edema in skin at 10 to 30 mg/kg administered daily for 3 days; format: organism-based; details: in vivo, 72 h, dose 10-30 mg/kg, time 3 day
[7] = tested on: Staphylococcus aureus; experiment: Resistant development in methicillin-resistant Staphylococcus aureus assessed as increase in MIC at sub-MIC measured after 20 passages; format: functional, organism-based
[8] = tested on: Cell membrane; experiment: Disruption of cell membrane integrity in methicillin-resistant Staphylococcus aureus assessed as protein leakage at 8 times MIC incubated for 8 hrs by BCA assay; format: cell membranes
[9] = tested on: Staphylococcus aureus; experiment: Antibacterial activity against methicillin-resistant Staphylococcus aureus assessed as reduction in metabolic activity at 8 times MIC measured after 24 hrs by alamar blue assay relative to control; format: functional; parameters: scale not given: the % may be the effect or the level left
[10] = tested on: NIH3T3; experiment: Cytotoxicity against mouse NIH3T3 cells assessed as reduction in cell viability upto 64 times MIC incubated for 24 hrs by CCK-8 assay; format: toxicity, cell-based; details: nih3t3, 24 h

## CC1(C)CC[C@]2(C(=O)NS(=O)(=O)c3ccc(Cl)cc3)CC[C@]3(C)C(=CC[C@@H]4[C@@]5(C)Cc6c([nH]c7c(C(=O)O)cccc67)C(C)(C)[C@@H]5CC[C@]43C)[C@@H]2C1
[1]
  Activity: Active
[2]
  Activity: Active
[3]
  Activity: Dose-Dependent Effect
[4]
  Activity: Active
[5]
  Activity: Active
[6]
  Activity: Non-Toxic
[7]
  Activity: inactive
[8]
  Activity: 168 µg/mL
[9]
  Activity: 55%
[10]
  Activity: Non-Toxic
